Each structure is given as a SMILES string.

One data set in a line: in vitro. As to conditions: human, CC50, uninfected A549 cells, CellTiter-Glo. In general terms: In ATP-based viability assays light output follows the ATP content of the culture.
In data set [1] the test system is Influenza strain A549 A/WSN/33 (H1N1). Briefly: microbe, parasite or virus in culture. The format is cell-based. Conditions: Influenza A virus, A549, 20 h, A549 cells, influenza A/WSN/33 (H1N1), 20 hours incubation; read-out: A549_A(H1N1) EC50.

As to `CC[C@H]1/C=C/COc2c(F)cccc2[C@@H](c2ccccn2)N2CN1C(=O)c1c(O)c(=O)ccn12` (single isomer, unassigned) [Compound 154AB, (9*S,18*S,*E)-9-ethyl-4-fluoro-12-hydroxy-18-(pyridin-2-yl)-6,9-dihydro-18H-10,17-methanobenzo[b]pyrido[1,2-f][1]oxa[5,6,9]triazacyclotridecine-11,13-dione], the CC50 in “in vitro” is above 100 nM. Further, in data set [1], the EC50 is above 50 nM.

Turning to `O=C1c2c(O)c(=O)ccn2N2CN1CCCCCc1ccccc1C2c1ccccn1` (stereo not drawn) [Compound 12, 4-hydroxy-16-(pyridin-2-yl)-7,8,9,10,11,16-hexahydro-6,17-methanobenzo[k]pyrido[1,2-b][1,2,5]triazacyclotridecine-3,5-dione], the CC50 in “in vitro” was above 2000 nM. For the same compound, the EC50 in data set [1] is 86 nM.

Consider `O=C1c2c(O)c(=O)ccn2N2CN1C1(/C=C/COc3c(F)cccc3[C@H]2c2ccccc2)CC1` (single isomer, unassigned) [Compound 95B, (18′*R,E)-4′-fluoro-12′-hydroxy-18′-phenyl-6′H,18′H-spiro[cyclopropane-1,9′-[10,17]methanobenzo[b]pyrido[1,2-f][1]oxa[5,6,9]triazacyclotridecine]-11′,13′-dione], for which, in “in vitro”, the CC50 is above 1000 nM. The EC50 in data set [1] amounted to 1.7 nM.

`O=C1c2c(O)c(=O)ccn2N2CN1C/C=C\COc1cccc3c1[C@@H]2c1ccccc1CC3` (single isomer, unassigned) [Compound 33B, (19b*S,Z)-4-hydroxy-7,10,15,19b-tetrahydro-14H-13,12-(epiprop[1]en[1]yl[3]ylidene)-6,20-methanobenzo[3,4]cyclohepta[1,2-c]pyrido[1,2-f][1]oxa[5,6,9]triazacyclotridecine-3,5-dione] had a CC50 in the data set “in vitro” above 2000 nM. The EC50 in data set [1] is 15 nM.

Turning to `CC(C)[C@H]1/C=C/COc2cc(F)c(F)c3c2[C@@H](c2ccccc2SC3)N2CN1C(=O)c1c(O)c(=O)ccn12` (single isomer, unassigned) [Compound 169AA, (9*S,17a*S,*E)-24,25-difluoro-12-hydroxy-9-isopropyl-2,6,9,17a-tetrahydro-3,4-(epiprop[1]en[1]yl[3]ylidene)-10,17-methanobenzo[6,7]thiepino[4,5-c]pyrido[1,2-f][1]oxa[5,6,9]triazacyclotridecine-11,13-dione], in “in vitro”, the CC50 was above 100 nM. For the same compound, in data set [1], the EC50 was 48 nM.

As for `O=C1c2c(O)c(=O)ccn2N2CN1C1(/C=C/COc3ccccc3[C@@H]2c2ccccc2)CC1` [Compound 79A, (18'S,E)-12′-hydroxy-18′-phenyl-6′H,18′H-spiro[cyclopropane-1,9′-[10,17]methanobenzo[b]pyrido[1,2-f][1]oxa[5,6,9]triazacyclotridecine]-11′,13′-dione], in “in vitro”, the CC50 is above 1000 nM. For the same compound, in data set [1], the EC50 was above 500 nM.

`O=C1c2c(O)c(=O)ccn2N2CN1CC/C=C\c1cccc3c1C2c1ccccc1CC3` (stereo not drawn) [Compound 73, (11*Z)-6-hydroxy-10,16,17,21b-tetrahydro-9H-1,8-methanobenzo[4,5]cyclohepta[1,2,3-op]pyrido[1,2-c][2,3,6]benzotriazacyclododecine-5,7-dione] showed a CC50 in the data set “in vitro” above 2000 nM. Also, the EC50 in data set [1] is 16 nM.

In “in vitro”, `O=C1c2c(O)c(=O)ccn2N2CN1[C@@H](C1CC1)/C=C/COc1c(ccc(F)c1F)[C@H]2c1ccccc1` (single isomer, unassigned) [Compound 152BA, (9*S,18*R,*E)-9-cyclopropyl-3,4-difluoro-12-hydroxy-18-phenyl-6,9-dihydro-18H-10,17-methanobenzo[b]pyrido[1,2-f][1]oxa[5,6,9]triazacyclotridecine-11,13-dione] had a CC50 above 200 nM. Also, in data set [1], the EC50 turned out to be 1.3 nM.

As to `O=C1c2c(O)c(=O)ccn2N2CN1C/C=C/COc1cccc3c1[C@@H]2c1ccccc1SC3` [Compound 46C, (17R,E)-12-hydroxy-2,6,9,17a-tetrahydro-3,4-(epiprop[1]en[1]yl[3]ylidene)-10,17-methanobenzo[6,7]thiepino[4,5-c]pyrido[1,2-f][1]oxa[5,6,9]triazacyclotridecine-11,13-dione], the CC50 in “in vitro” is above 2000 nM. In data set [1], the EC50 was 330 nM.

In turn, `CC[C@H]1/C=C/COc2c(ccc(Cl)c2Cl)[C@H](c2ccccc2)N2CN1C(=O)c1c(O)c(=O)ccn12` (single isomer, unassigned) [Compound 121BB, (9*S,18*S,*E)-3,4-dichloro-9-ethyl-12-hydroxy-18-phenyl-6,9-dihydro-18H-10,17-methanobenzo[b]pyrido[1,2-f][1]oxa[5,6,9]triazacyclotridecine-11,13-dione] displayed a CC50 in “in vitro” above 200 nM. In addition, the EC50 in data set [1] is 60 nM.

Take `CC[C@@H]1/C=C/COc2c(Cl)cccc2[C@@H](c2ccccc2)N2CN1C(=O)c1c(O)c(=O)ccn12` (single isomer, unassigned) [Compound 98BB, (9*R,18*R,E)-4-chloro-9-ethyl-12-hydroxy-18-phenyl-6,9-dihydro-18H-10,17-methanobenzo[b]pyrido[1,2-f][1]oxa[5,6,9]triazacyclotridecine-11,13-dione]: in “in vitro”, the CC50 was above 1000 nM. Further, the EC50 in data set [1] amounted to 2.1 nM.

In the data set “in vitro”, `O=C1c2c(O)c(=O)ccn2N2CN1CC[C@@H]1C[C@@H]1COc1cccc3c1[C@@H]2c1ccccc1SC3` (single isomer, unassigned) [Compound 144AA, (1*R,13*S,15*S)-7-hydroxy-17-oxa-24-thia-2,3,10-triazaheptacyclo[16.12.1.12,10.03,8.013,15.022,31.025,30]dotriaconta-4,18,20,22(31),25(30),26,28-heptaene-6,9-dione] registered a CC50 above 200 nM. For the same compound, in data set [1], the EC50 was above 100 nM.

For the compound `C[C@H]1/C=C/COc2ccccc2[C@@H](c2ccccc2)N2CN1C(=O)c1c(O)c(=O)ccn12` (single isomer, unassigned) [Compound 29AB, (9*S, 18*R, E)-12-hydroxy-9-methyl-18-phenyl-6,9-dihydro-18H-10,17-methanobenzo[b]pyrido[1,2-f][1]oxa[5,6,9]triazacyclotridecine-11,13-dione], in “in vitro”, the CC50 was above 200 nM. Further, the EC50 in data set [1] amounted to 5.7 nM.

Regarding `O=C1c2c(O)c(=O)ccn2N2CN1CC/C=C/CCOc1ccccc1[C@H]2c1ccccc1` (single isomer, unassigned) [Compound 65A, (2*R,*Z)-15-hydroxy-2-phenyl-12,13,14,16-tetrahydro-11H-4-oxa-1(1,3)-pyrido[2,1-f][1,2,4]triazina-3(1,2)-benzenacyclodecaphan-7-ene-14,16-dione], the CC50 in “in vitro” was above 10000 nM. In data set [1], the EC50 is above 5000 nM.

On to `O=C1c2c(O)c(=O)ccn2N2CN1CCCC/C=C\c1cccc3c1[C@@H]2c1ccccc1CC3` (single isomer, unassigned) [Compound 86B, (13*Z,23b*R)-6-hydroxy-10,11,12,18,19,23b-hexahydro-9H-1,8-methanobenzo[4,5]cyclohepta[1,2,3-qr]pyrido[1,2-c][2,3,6]benzotriazacyclotetradecine-5,7-dione], for which the CC50 in the data set “in vitro” was above 2000 nM. The EC50 in data set [1] stood at 27 nM.

For `COC[C@H]1N2C/C=C\COc3ccccc3[C@H](c3ccccc3)N1n1ccc(=O)c(O)c1C2=O` (single isomer, unassigned) [Compound 109B, (18*S,19*S,*Z)-12-hydroxy-19-(methoxymethyl)-18-phenyl-6,9-dihydro-18H-10,17-methanobenzo[b]pyrido[1,2-f][1]oxa[5,6,9]triazacyclotridecine-11,13-dione], the CC50 in the data set “in vitro” was above 200 nM. Moreover, in data set [1], the EC50 is above 100 nM.

`CC[C@H]1/C=C\COc2cc(F)c(F)c3c2[C@H](c2ccccc2SC3)N2CN1C(=O)c1c(O)c(=O)ccn12` (single isomer, unassigned) [Compound 126AA, (13*S,21a*R,Z)-13-ethyl-24,25-difluoro-16-hydroxy-6,10,13,21a-tetrahydro-7,8-(epiprop[1]en[1]yl[3]ylidene)-14,21-methanobenzo[6,7]thiepino[4,5-c]pyrido[1,2-f][1]oxa[5,6,9]triazacyclotridecine-15,17-dione]: the CC50 in “in vitro” is above 200 nM. Moreover, in data set [1], the EC50 was above 100 nM.

For the compound `CC[C@@H]1/C=C/COc2c(ccc(F)c2F)[C@@H](c2ccccn2)N2CN1C(=O)c1c(O)c(=O)ccn12` (single isomer, unassigned) [Compound 160AB, (9*R,18*S,*E)-9-ethyl-3,4-difluoro-12-hydroxy-18-(pyridin-2-yl)-6,9-dihydro-18H-10,17-methanobenzo[b]pyrido[1,2-f][1]oxa[5,6,9]triazacyclotridecine-11,13-dione], the CC50 in the data set “in vitro” is above 100 nM. Further, in data set [1], the EC50 was determined as 2.8 nM.

On to `O=C1c2c(O)c(=O)ccn2N2CN1CC/C=C\COc1cc(F)c(F)c3c1[C@@H]2c1ccccc1SC3` (single isomer, unassigned) [Compound 88A, (23b*R, Z)-16,17-difluoro-6-hydroxy-10,13,18,23b-tetrahydro-9H-1,8-methano[1]benzothiepino[5,4,3-lm]pyrido[2,1-i][1,7,10,11]benzoxatriazacyclotetradecine-5,7-dione], for which, in the data set “in vitro”, the CC50 is above 1000 nM. In data set [1], the EC50 was above 500 nM.

`O=C1c2c(O)c(=O)ccn2N2CN1C/C=C/COc1cccc3c1[C@H]2c1ccccc1SC3` [Compound 46D, (17S,E)-12-hydroxy-2,6,9,17a-tetrahydro-3,4-(epiprop[1]en[1]yl[3]ylidene)-10,17-methanobenzo[6,7]thiepino[4,5-c]pyrido[1,2-f][1]oxa[5,6,9]triazacyclotridecine-11,13-dione] came in with a CC50 in the data set “in vitro” above 200 nM. In addition, in data set [1], the concentration for a half-maximal effect (EC50) stood at 1 nM.

With `C[C@@H]1/C=C/COc2c(ccc(F)c2F)[C@@H](c2ccccc2)N2CN1C(=O)c1c(O)c(=O)ccn12` (single isomer, unassigned) [Compound 148AA, (9*R,18*R,*E)-3,4-difluoro-12-hydroxy-9-methyl-18-phenyl-6,9-dihydro-18H-10,17-methanobenzo[b]pyrido[1,2-f][1]oxa[5,6,9]triazacyclotridecine-11,13-dione], the CC50 in the data set “in vitro” was above 50 nM. In data set [1], the EC50 came to 1.6 nM.

The CC50 is the concentration giving 50% cytotoxicity. The term EC50 denotes the concentration at which the effect is half-maximal.

The record behind these values is patent US11312727B1, “Macrocyclic flu endonuclease inhibitors” (Janssen BioPharma, Inc., priority 2018, dated 2022).
